Broadly, the IC50 is the concentration at which inhibition is half-maximal.

Structures are written as SMILES. A value given as a limit tells only on which side of the number the result lay.

Data on 9 compounds can be found in ChEMBL document CHEMBL1201861, “Genomics of Drug Sensitity in Cancer screening data, Wellcome Trust Sanger Institute”.

Common to all, as to type: functional, cell-based
One test deals with TI-73. Briefly: cells. To be noted: Homo sapiens.
A further test relates to ZR-75-30. Briefly: cells. To be noted: Homo sapiens.
A further test relates to TGBC11TKB. Briefly: cells. To be noted: Homo sapiens.
The next test concerns NCI-H1975. Briefly: cells. Particulars: Homo sapiens.
Another test deals with NCI-H1666. Briefly: cells. To be noted: Homo sapiens.
For a further test, the system named is CFPAC-1. Briefly: cells. To be noted: Homo sapiens.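 Also: cell viability readout used to gauge suppression of CFPAC-1 cell proliferation.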
In the next test the test system is D-423MG. Briefly: cells. Particulars: Homo sapiens.
In another test the test system is KNS-62. Briefly: cells. To be noted: Homo sapiens.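 Also: inhibition of cell growth, read out with a cell viability assay.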
A further test deals with EPLC-272H. Briefly: cells. To be noted: Homo sapiens.
Another test has as its system SW900. Briefly: cells. To be noted: Homo sapiens.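 Also: IC50 is the concentration that inhibits SW900 cell growth, measured by a cell viability assay.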
The next test concerns D-566MG. Briefly: cells. To be noted: Homo sapiens.
A further test deals with NCI-H2291. Briefly: cells. To be noted: Homo sapiens.
Another test has as its system A549. Briefly: cells. Particulars: Homo sapiens.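 Also: growth inhibition of A549 cells, read out with a cell viability assay.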
The test system of another test is BALL-1. Briefly: cells. To be noted: Homo sapiens.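 Also: growth inhibition of BALL-1 cells, read out with a cell viability assay.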
For a further test, the system named is BT-549. Briefly: cells. Particulars: Homo sapiens.
The test system of another test is NCI-H2029. Briefly: cells. Particulars: Homo sapiens.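 Also: Read-out is a viability assay on the cultured cells, and IC50 is the concentration that suppresses cell growth.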
The next test concerns NCI-H1048. Briefly: cells. To be noted: Homo sapiens.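 Also: growth inhibition of human NCI-H1048 cells, read out with a cell viability assay.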
The test system of a further test is H-EMC-SS. Briefly: cells. Particulars: Homo sapiens.
A further test concerns OC-314. Briefly: cells. To be noted: Homo sapiens.
In another test the test system is YH-13. Briefly: cells. Particulars: Homo sapiens.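 Also: cell viability readout of growth suppression in the human YH-13 cell line.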
In a further test the test system is NBsusSR. Briefly: cells. To be noted: Homo sapiens.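 Also: growth inhibition of the human cell line, read out with a cell viability assay.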
Another test relates to RH-18. Briefly: cells. To be noted: Homo sapiens, Rh18.
The test system of the next test is H9. Briefly: cells. To be noted: Homo sapiens.
The test system of a further test is LU-135. Briefly: cells. To be noted: Homo sapiens.
The subject of the next test is ECC10. Briefly: cells. To be noted: Homo sapiens.
Another test concerns CHP-134. Briefly: SANGER: Inhibition of human CHP-134 cell growth in a cell viability assay.
A further test concerns NCI-H2227. Briefly: cells. To be noted: Homo sapiens.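 Also: growth inhibition of the human cell line, read out with a cell viability assay.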
The subject of another test is NCI-H128. Briefly: SANGER: Inhibition of human NCI-H128 cell growth in a cell viability assay.
The next test relates to ECC12. Briefly: cells. To be noted: Homo sapiens.
In another test the test system is NCI-H2107. Briefly: SANGER: Inhibition of human NCI-H2107 cell growth in a cell viability assay.
For the next test, the system named is CRO-AP2. Briefly: SANGER: Inhibition of human CRO-AP2 cell growth in a cell viability assay.
Another test concerns RL95-2. Briefly: cells. Particulars: Homo sapiens.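 Also: RL95-2 growth inhibition determined through a cell viability readout.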
The test system of the next test is EW-12. Briefly: SANGER: Inhibition of human EW-12 cell growth in a cell viability assay.
A further test relates to SKM-1. Briefly: SANGER: Inhibition of human SKM-1 cell growth in a cell viability assay.
Another test has as its system KP-N-RT-BM-1. Briefly: SANGER: Inhibition of human KP-N-RT-BM-1 cell growth in a cell viability assay.
The test system of the next test is CP67-MEL. Briefly: SANGER: Inhibition of human CP67-MEL cell growth in a cell viability assay.

Description for A549: SANGER: Inhibition of human A549 cell growth in a cell viability assay.
Description for BALL-1: SANGER: Inhibition of human BALL-1 cell growth in a cell viability assay.
Description for BT-549: SANGER: Inhibition of human BT-549 cell growth in a cell viability assay.
Description for CFPAC-1: SANGER: Inhibition of human CFPAC-1 cell growth in a cell viability assay.
Description for D-423MG: SANGER: Inhibition of human D-423MG cell growth in a cell viability assay.
Description for ECC10: SANGER: Inhibition of human ECC10 cell growth in a cell viability assay.
Description for ECC12: SANGER: Inhibition of human ECC12 cell growth in a cell viability assay.
Description for EPLC-272H: SANGER: Inhibition of human EPLC-272H cell growth in a cell viability assay.
Description for H-EMC-SS: SANGER: Inhibition of human H-EMC-SS cell growth in a cell viability assay.
Description for H9: SANGER: Inhibition of human H9 cell growth in a cell viability assay.
Description for KNS-62: SANGER: Inhibition of human KNS-62 cell growth in a cell viability assay.
Description for LU-135: SANGER: Inhibition of human LU-135 cell growth in a cell viability assay.
Description for NBsusSR: SANGER: Inhibition of human NBsusSR cell growth in a cell viability assay.
Description for NCI-H1048: SANGER: Inhibition of human NCI-H1048 cell growth in a cell viability assay.
Description for NCI-H1666: SANGER: Inhibition of human NCI-H1666 cell growth in a cell viability assay.
Description for NCI-H1975: SANGER: Inhibition of human NCI-H1975 cell growth in a cell viability assay.
Description for NCI-H2029: SANGER: Inhibition of human NCI-H2029 cell growth in a cell viability assay.
Description for NCI-H2227: SANGER: Inhibition of human NCI-H2227 cell growth in a cell viability assay.
Description for NCI-H2291: SANGER: Inhibition of human NCI-H2291 cell growth in a cell viability assay.
Description for OC-314: SANGER: Inhibition of human OC-314 cell growth in a cell viability assay.
Description for RH-18: SANGER: Inhibition of human RH-18 cell growth in a cell viability assay.
Description for RL95-2: SANGER: Inhibition of human RL95-2 cell growth in a cell viability assay.
Description for SW900: SANGER: Inhibition of human SW900 cell growth in a cell viability assay.
Description for TGBC11TKB: SANGER: Inhibition of human TGBC11TKB cell growth in a cell viability assay.
Description for TI-73: SANGER: Inhibition of human TI-73 cell growth in a cell viability assay.
Description for YH-13: SANGER: Inhibition of human YH-13 cell growth in a cell viability assay.
Description for ZR-75-30: SANGER: Inhibition of human ZR-75-30 cell growth in a cell viability assay.

Turning to `Cn1cc(/C=C2\C(=O)Nc3cccnc32)c2ccccc21`, the concentration for half-maximal inhibition (IC50) in the test with TI-73, in the test with ZR-75-30, in the test with TGBC11TKB, with NCI-H1975, with NCI-H1666 and in the test with CFPAC-1 was over 2 µM throughout. The 50% inhibitory concentration (IC50) in the test on D-423MG, in the test on KNS-62, with EPLC-272H, in the test on SW900, with D-566MG and with NCI-H2291 was over 2 µM throughout. Besides, the concentration for half-maximal inhibition (IC50) in the test on A549 was over 2 µM; with BALL-1, over 2 µM; with BT-549, over 2 µM; in the test on NCI-H2029 it was over 2 µM; in the test with NCI-H1048 it was over 2 µM; in the test on H-EMC-SS it was 0.765 µM. Further, the IC50 in the test on OC-314, in the test on YH-13, in the test on NBsusSR, with RH-18, in the test on H9 and in the test on LU-135 was over 2 µM each time. In addition, the IC50 in the test on ECC10 is over 2 µM.
In the case of `CC[C@]1(O)C[C@@H]2CN(CCc3c([nH]c4ccccc34)[C@@](C(=O)OC)(c3cc4c(cc3OC)N(C)[C@H]3[C@@](O)(C(=O)OC)[C@H](OC(C)=O)[C@]5(CC)C=CCN6CC[C@]43[C@@H]65)C2)C1` [VINBLASTINE], the IC50 in the test on TI-73 was 0.00321 µM; in the test on ZR-75-30 it was over 0.1 µM; in the test with TGBC11TKB, 0.0158 µM; in the test with NCI-H1975 it was 0.0242 µM; in the test with NCI-H1666, 0.0201 µM; with CFPAC-1, 0.0932 µM. Further, the IC50 was 0.00864 µM in the test on D-423MG; 0.0058 µM in the test on KNS-62; 0.0108 µM in the test with EPLC-272H; 0.0254 µM with SW900; 0.00204 µM in the test with D-566MG; over 0.1 µM with NCI-H2291. Further, the IC50 in the test on A549 was 0.00495 µM; with BALL-1 it was over 0.1 µM; with BT-549, 0.00798 µM; in the test on NCI-H2029, over 0.1 µM; in the test with NCI-H1048 it was 0.0101 µM; in the test with H-EMC-SS, over 0.1 µM. The concentration for half-maximal inhibition (IC50) was 0.00222 µM in the test on OC-314; 0.0037 µM in the test with YH-13; 0.00323 µM in the test on NBsusSR; over 0.1 µM in the test with RH-18; 0.00225 µM with H9; 0.0356 µM with LU-135. The same compound yielded an IC50 in the test with ECC10 of 0.0212 µM.
As to `NC(=O)c1ncn([C@@H]2O[C@H](COP(=O)(O)O)[C@@H](O)[C@H]2O)c1N`, the 50% inhibitory concentration (IC50) in the test on TI-73 was 724 µM; with ZR-75-30 it was over 2000 µM; in the test on TGBC11TKB it was over 2000 µM; in the test with NCI-H1975 it was 1070 µM; in the test with NCI-H1666, over 2000 µM; in the test with CFPAC-1, 1120 µM. In addition, the IC50 in the test with D-423MG is over 2000 µM; in the test with KNS-62 it was 996 µM; in the test with EPLC-272H, 569 µM; in the test on SW900, over 2000 µM; in the test on D-566MG it was over 2000 µM; in the test on NCI-H2291, over 2000 µM. In addition, the IC50 was over 2000 µM in the test on A549; over 2000 µM in the test on BALL-1; 807 µM in the test with BT-549; over 2000 µM in the test with NCI-H1048; over 2000 µM in the test on YH-13; 474 µM in the test with NBsusSR. Further, the 50% inhibitory concentration (IC50) with RH-18 and in the test on LU-135 was over 2000 µM each time.
As for `CC(=O)c1c(C)c2cnc(Nc3ccc(N4CCNCC4)cn3)nc2n(C2CCCC2)c1=O` [PALBOCICLIB], the IC50 in the test with TI-73, with ZR-75-30, with TGBC11TKB, in the test with CFPAC-1, in the test with D-423MG and with KNS-62 was over 4 µM throughout. For the same compound, the IC50 with EPLC-272H is over 4 µM; with D-566MG, over 4 µM; in the test with NCI-H2291 it was over 4 µM; in the test with A549, 1.29 µM; with BALL-1 it was over 4 µM; in the test with BT-549, over 4 µM. Moreover, the IC50 was 1.12 µM with CHP-134; over 4 µM with NCI-H2029; over 4 µM in the test on NCI-H1048; over 4 µM in the test on H-EMC-SS; over 4 µM in the test on OC-314; 3.44 µM in the test on YH-13. Besides, the half-maximal inhibitory concentration (IC50) is 0.743 µM in the test on NBsusSR; over 4 µM in the test on RH-18; 0.495 µM with H9; over 4 µM with LU-135; 2.7 µM with ECC10.
For the compound `CCn1c(-c2nonc2N)nc2cnc(Oc3cccc(NC(=O)c4ccc(OCCN5CCOCC5)cc4)c3)cc21` [GSK-269962A], the IC50 is over 2.5 µM in the test with NCI-H2227; over 2.5 µM in the test on NCI-H128; over 2.5 µM with ECC12; over 2.5 µM in the test with NCI-H2107; 2.36 µM in the test on CRO-AP2; over 2.5 µM with RL95-2. Moreover, the 50% inhibitory concentration (IC50) in the test with EW-12 and with SKM-1 was over 2.5 µM each time.
Regarding `Cn1c(=O)n(-c2ccc(C(C)(C)C#N)cc2)c2c3cc(-c4cnc5ccccc5c4)ccc3ncc21` [DACTOLISIB], the half-maximal inhibitory concentration (IC50) is 0.0253 µM in the test with TI-73; over 2 µM with ZR-75-30; 0.41 µM in the test with TGBC11TKB; 0.00971 µM in the test with NCI-H1666; 0.151 µM with CFPAC-1; 0.0521 µM in the test with D-423MG. Also, the IC50 with KNS-62 is 0.0454 µM; with EPLC-272H, 0.0444 µM; in the test on SW900, 0.155 µM; with D-566MG, 0.0177 µM; with NCI-H2291, 0.598 µM; in the test with A549, 0.0101 µM. The half-maximal inhibitory concentration (IC50) with BALL-1 is over 2 µM; in the test with BT-549, 0.119 µM; with CHP-134 it was 0.14 µM; in the test on NCI-H2029 it was 1.42 µM; in the test on NCI-H1048, 0.0863 µM; in the test with H-EMC-SS it was 0.147 µM. Further, the IC50 is 0.0387 µM in the test with OC-314; 0.0219 µM in the test with YH-13; 0.0246 µM in the test with NBsusSR; 0.395 µM with RH-18; over 2 µM in the test with LU-135; 0.032 µM in the test with ECC10.
`C[C@]12O[C@H](C[C@]1(O)CO)n1c3ccccc3c3c4c(c5c6ccccc6n2c5c31)CNC4=O` [LESTAURTINIB]: the 50% inhibitory concentration (IC50) with TI-73 was 0.235 µM; with ZR-75-30, over 2 µM; with TGBC11TKB, 1.41 µM; in the test on NCI-H1975 it was 1.25 µM; in the test on NCI-H1666 it was 1.89 µM; in the test with CFPAC-1, over 2 µM. Further, the half-inhibitory concentration (IC50) was 0.571 µM in the test on D-423MG; over 2 µM in the test with KNS-62; 0.154 µM with EPLC-272H; 1.41 µM in the test with SW900; 0.0965 µM in the test with D-566MG; 1.8 µM in the test with NCI-H2291. Besides, the half-maximal inhibitory concentration (IC50) is 0.194 µM with A549; over 2 µM with BALL-1; 0.163 µM in the test on BT-549; over 2 µM in the test on NCI-H2029; 0.141 µM in the test with NCI-H1048; 0.425 µM in the test with H-EMC-SS. The IC50 is 1.84 µM in the test on OC-314; 0.135 µM with YH-13; 0.162 µM with NBsusSR; over 2 µM in the test with RH-18; 0.0348 µM in the test on H9; over 2 µM with LU-135. This compound registered an IC50 with ECC10 of 0.311 µM.
On to `Cc1ccc(NC(=O)c2cccc(C(C)(C)C#N)c2)cc1Nc1ccc2ncn(C)c(=O)c2c1`, for which the half-inhibitory concentration (IC50) is over 4 µM with NCI-H2227; over 4 µM with NCI-H128; 1.71 µM in the test with ECC12; over 4 µM in the test with CRO-AP2; over 4 µM in the test with RL95-2; over 4 µM in the test on EW-12. The 50% inhibitory concentration (IC50) in the test on SKM-1 was over 4 µM.
Take `Cc1[nH]c(/C=C2\C(=O)Nc3ccc(S(=O)(=O)Cc4c(Cl)cccc4Cl)cc32)c(C)c1C(=O)N1CCC[C@@H]1CN1CCCC1` [PHA-665752]: the IC50 in the test on NCI-H128, in the test on KP-N-RT-BM-1, in the test on CRO-AP2, in the test on RL95-2, in the test on CP67-MEL and with EW-12 was over 2 µM each time. The IC50 in the test on SKM-1 is over 2 µM.
